The record followed here is ChEMBL document CHEMBL4715898, “Synthesis and structure-activity relationships of pyrimidine derivatives as potent and orally active FGFR3 inhibitors with both increased systemic exposure and enhanced in vitro potency” (Bioorg Med Chem, 2021).

The structures appear in SMILES notation. ≈ marks a conversion by molar mass, not a printed value.

A short description of one series: in vitro. To be noted: PAMPA, pH 7.4.
Series [1] is described as follows: physchem. To be noted: JP2 fluid, pH 6.8.
The nature of series [2]: physchem. The conditions noted are these: buffer, pH 7.4.
For series [3] the following is noted: mouse, in vivo, po, 30 mg/kg, 0.75 h.
Another series is described as follows: cells. To be noted: Homo sapiens, NIH3T3, 120 h.
A further series in a line: in vivo. The conditions noted are these: ICR, mouse, plasma, po, 30 mg/kg.
A further series is described as follows: animal or person. The conditions noted are these: Mus musculus, Balb/c, NIH3T3, po, 6 h, read-out: INH.

As usually defined, the Papp is the rate of passage across a membrane or cell layer, normalised by area and donor concentration. Low values mean poor permeation, high ones ready permeation. What is called solubility is how much of the substance goes into solution per volume. The term logD denotes the decadic logarithm of the distribution of all forms, ionised or not, between an organic phase and buffer at a given pH. High values mean a more lipophilic compound, low ones a more hydrophilic compound. By IC50 is commonly meant the concentration that gives 50% inhibition. A high value points to weaker potency in that assay.

For the compound `COc1cc(COc2cnc(Nc3ccc(N4CCC(N5CCN(C)CC5)CC4)c(OC)c3)nc2)cc(OC)c1`, in “in vitro”, the Papp at 2 h was determined as 18.5 ×10⁻⁶ cm/s. The solubility at 20 h, 10000 µM in the series “physchem [1]” is at least 100 µM. The logD in the series “physchem [2]” turned out to be 3.2.

The compound `COc1cc(OC)cc(C(=O)Nc2cnc(Nc3ccc(N4CCC(N5CCN(C)CC5)CC4)c(OC)c3)nc2NCCS(C)(=O)=O)c1` registered a Papp at 2 h in “in vitro” of under 0.2 ×10⁻⁶ cm/s. In addition, the solubility at 20 h, 10000 µM in “physchem [1]” is at least 100 µM. In addition, in the series “physchem [2]”, the logD worked out at 1.8.

The compound `COc1cc(Nc2ncc(CCc3c(Cl)c(OC)cc(OC)c3Cl)cn2)ccc1N1CCC(N2CCN(C)CC2)CC1` yielded an apparent permeability coefficient (Papp) at 2 h in the series “in vitro” of 18.7 ×10⁻⁶ cm/s. In the series “physchem [1]”, this compound yielded a solubility at 20 h, 10000 µM of 5 µM (≈ 3.08 µg/mL). Further, the pH-dependent lipophilicity (logD) in “physchem [2]” is 4.4.

Regarding `CCNS(=O)(=O)c1ccccc1Nc1nc(Nc2ccc(N3CCC(N4CCN(C)CC4)CC3)c(OC)c2)ncc1NC(=O)c1cc(OC)cc(OC)c1`, the CL in series [3] was over 600 mL/min/kg. Further, it took 99 nM to reach half-maximal inhibition in “cells” (IC50). In addition, the concentration at 6 h in “in vivo” is 98.2 nM. Further, the Papp at 2 h in “in vitro” came out at 1.4 ×10⁻⁶ cm/s. The compound further yielded a solubility at 20 h, 10000 µM in “physchem [1]” of under 1 µM. The logD in “physchem [2]” was over 3.9.

Take `CCNS(=O)(=O)c1ccccc1Nc1nc(Nc2ccc(N3CCC(N4CCN(C)CC4)CC3)c(OC)c2)ncc1CCc1cc(OC)cc(OC)c1`: in “cells”, the IC50 worked out at 34 nM. Moreover, the Papp at 2 h in the series “in vitro” was found to be 1.8 ×10⁻⁶ cm/s. The solubility at 20 h, 10000 µM in “physchem [1]” was under 1 µM. In “physchem [2]”, this compound had a logD of over 4.8.

Regarding `COc1cc(CNc2cnc(Nc3ccc(N4CCC(N5CCN(C)CC5)CC4)c(OC)c3)nc2)cc(OC)c1`, the Papp at 2 h in “in vitro” turned out to be 18.1 ×10⁻⁶ cm/s. The same compound gave a solubility at 20 h, 10000 µM in the series “physchem [1]” of at least 100 µM. The compound further had a logD in “physchem [2]” of 2.9.

`COc1cc(CCc2cnc(Nc3ccc(N4CCC(N5CCN(C)CC5)CC4)c(OC)c3)nc2)c(F)c(OC)c1` registered a Papp at 2 h in the series “in vitro” of 24.4 ×10⁻⁶ cm/s. In addition, the solubility at 20 h, 10000 µM in the series “physchem [1]” was at least 100 µM. Further, the pH-dependent lipophilicity (logD) in “physchem [2]” amounted to 3.2.

In the case of `COc1cc(CCc2cnc(Nc3ccc(N4CCC(N5CCN(C)CC5)CC4)c(OC)c3)nc2)cc(OC)c1`, the CL in series [3] came to 227 mL/min/kg. Besides, the concentration at 6 h in “in vivo” came out at 1120 nM. Besides, the apparent permeability (Papp) at 2 h in the series “in vitro” turned out to be 15.1 ×10⁻⁶ cm/s. Moreover, the solubility at 20 h, 10000 µM in “physchem [1]” is at least 100 µM. Moreover, the logD in the series “physchem [2]” was found to be 3.5. Moreover, the inhibition in vivo at 30 mg/kg in “animal or person” was 21%.

As to `COc1cc(OC)cc(OCc2cnc(Nc3ccc(N4CCC(N5CCN(C)CC5)CC4)c(OC)c3)nc2)c1`, the apparent permeability coefficient (Papp) at 2 h in the series “in vitro” was over 30 ×10⁻⁶ cm/s. This compound came in with a solubility at 20 h, 10000 µM in “physchem [1]” of at least 100 µM. Further, the logD in “physchem [2]” stood at 3.4.

Regarding `COc1cc(OC)cc(C(=O)Nc2cnc(Nc3ccc(N4CCC(N5CCN(C)CC5)CC4)c(OC)c3)nc2Nc2ccccc2)c1`, the Papp at 2 h in the series “in vitro” was found to be 0.4 ×10⁻⁶ cm/s. In “physchem [1]”, the solubility at 20 h, 10000 µM was 36 µM (≈ 23.5 µg/mL). This compound gave a logD in “physchem [2]” of 3.7.

With `COc1cc(OC)cc(C(=O)Nc2cnc(Nc3ccc(N4CCC(N5CCN(C)CC5)CC4)c(OC)c3)nc2)c1`, the apparent permeability coefficient (Papp) at 2 h in “in vitro” was under 2.9 ×10⁻⁶ cm/s. The same compound displayed a solubility at 20 h, 10000 µM in “physchem [1]” of at least 100 µM. The log distribution coefficient (logD) in the series “physchem [2]” was found to be 2.8.

In “in vitro”, `COc1cc(Nc2ncc(CCc3c(F)c(OC)cc(OC)c3Cl)cn2)ccc1N1CCC(N2CCN(C)CC2)CC1` yielded a Papp at 2 h of 19.4 ×10⁻⁶ cm/s. In “physchem [1]”, this compound displayed a solubility at 20 h, 10000 µM of 12 µM (≈ 7.19 µg/mL). The same compound returned a logD in “physchem [2]” of 3.5.

The compound `COc1cc(OC)cc(C(=O)N(C)c2cnc(Nc3ccc(N4CCC(N5CCN(C)CC5)CC4)c(OC)c3)nc2)c1` displayed a Papp at 2 h in “in vitro” of 3.7 ×10⁻⁶ cm/s. In the series “physchem [1]”, this compound came in with a solubility at 20 h, 10000 µM of at least 100 µM. Besides, in “physchem [2]”, the logD came out at 1.8.
